Measured values from patent publication US10821059B2, “Cleansing bars” (priority 2015, dated 2020).

Test: Piroctone olamine as a phenoxyethanol solution
Format: physicochemical
Settings: if heated, for example to 80° C.
Procedure: In some embodiments, piroctone olamine is dissolved in a suitable amount of phenoxyethanol; i.e., all or part of the phenoxyethanol of the composition can be employed as the solvent for the piroctone olamine. Typically, where phenoxyethanol is the solvent for the piroctone olamine pre-mix or pre-solution, the piroctone olamine is present in the pre-mixture or pre-solution in an amount of from 1-30% by weight; for example 5%, 10%, 15%, 20%, 25% or 30% by weight. In such embodiments, the mixture including the piroctone olamine and phenoxyethanol is preferably heated to a temperature of from 50-120° C.; for example from 60-100° C.; for example from 65-80° C.; preferably to effect partial or complete dissolution of the piroctone olamine.
The data above show the feasibility of adding piroctone olamine as a phenoxyethanol solution up to at least 30% w/w during bar soap manufacturing, if heated, for example to 80° C. Furthermore, some piroctone olamine can optionally be supplemented as a solution in a further solvent, such as a fragrance or a fragrance dissolved in a solvent, preferably up to 7.5% at room temperature.

piroctone olamine as a phenoxyethanol solution, feasible concentration: at least 30 % w/w
Compound: Cc1cc(CC(C)CC(C)(C)C)n(O)c(=O)c1.NCCO (stereo not shown) [piroctone olamine]
